How the values were obtained:
Coniophora puteana = test: Toxic limit values on impregnated wood discs (method after Sutter), pine wood; assay type: cell-based; conditions: Coniophora puteana (Kiefer)
Description: (§1) Bestimmung der toxischen Grenzwerte (kg/m^3 Holz) der Wirkstoffe gemäß Beispiel 1 und 2 für Coniophora puteana bzw. Coriolus versicolor auf Kiefern- bzw. Buchenholz. Die Bestimmung der toxischen Grenzwerte erfolgt in Anlehnung an die von H.P. Sutter, Int. Biodeterioration Bulletin 14 (3), 1978, Seiten 95 bis 99, beschriebenen Methode.
(§2) Für die Tests werden jeweils frisch geschnittene dünne Stirnholzscheibchen (Größe 40 x 40 mm, Dicke etwa 2 mm) im Vakuum mit Lösungen unterschiedlich definierter Wirkstoffkonzentration getränkt. Die Menge des absorbierten Wirkstoffs in kg/m^3 Holz wird aus der Retention der Lösung (durch Einzelwägung der Holzproben vor und nach der Imprägnierung bestimmt), der Holzdichte und der Konzentration des Wirkstoffs in der verwendeten Imprägnierlösung errechnet.
(§3) Je 5 der 15 getrockneten Prüflinge einer Wirkstoffkonzentration werden dem Pilzangriff ohne Belastung ausgesetzt, 5 weitere Proben werden vorher im Windkanal (Windgeschwindigkeit: 1 + 0,1 m/sec; Temp.: 40 + 2°C) 4 Wochen lang belastet, 5 andere Prüflinge werden einer Wässerung in Anlehnung an DIN EN 84 unterzogen (14 Tage Lagerung in dest. Wasser bei 20°C, 9-maliger Wasserwechsel).
(§4) Für den mykologischen Test werden die Prüflinge nach Sterilisieren mit Propylenoxid einzeln auf das voll entwickelte Pilzmycel des Prüfpilzes auf Malzextraktagar in Petrischalen aufgelegt, durch Distanzhalter beträgt der Abstand zwischen Agaroberfläche und Probe ca. 5 mm. Nach 6wöchiger Lagerung bei 21-23°C wird der Zerstörungsgrad der Prüfling visuell beurteilt.
(§5) Als Grenzwerte der toxischen Wirkung werden die beiden Konzentrationen des Wirkstoffs in kg/m^3 Holz ermittelt, bei denen das Holz gerade noch und nicht mehr angegriffen wird.
(§6) In der folgenden Tabelle sind die Mittelwerte der Toxizitätsgrenzwerte für die erfindungsgemäßen Substanzen gemäß Beispiel 1 und 2 sowie für den bekannten Wirkstoff Dichlorfluonid für zwei Prüfpilze und zwei verschiedene Holzarten angegeben.
(§7) Mittlere Toxizitätsgrenzen (kg/m^3 Holz) von Wirkstoffen gemäß Beispiel 1 und 2 für holzzerstörende Pilze.

Coriolus versicolor = test: Toxic limit values on impregnated wood discs (method after Sutter), beech wood; assay type: cell-based; conditions: Coriolus versicolor (Buche)
Description: as §1, §2, §3, §4, §5, §6, §7

[1] = Solubility in organic solvents for wood preservatives; assay type: physicochemical; conditions: for Löslichkeit (%) in Shellsol AB: solvent Shellsol AB; for Löslichkeit (%) in Testbenzin: solvent Testbenzin
Description: Löslichkeiten erfindungsgemäßer Wirkstoffe nach Beispiel 1 und 2 im Vergleich zum handelsüblichen Dichlofluanid in organischen Lösungsmitteln für Holzschutzmittel
(Testbenzin und Shellsol AB sind handelsübliche niedrigsiedende Kohlenwasserstoffe).

[2] = nach Belüftung (wind tunnel 4 weeks, 40°C)
[3] = nach Wässerung (14 days in distilled water, 20°C)
[4] = ohne Belastung, 6 weeks at 21-23°C

## CCN(CC)S(=O)(=O)N(SC(F)(Cl)Cl)c1ccccc1 [Beispiel 1, N,N-Diethyl-N'-phenyl-N'-(dichlorfluormethylthio)-sulfamid]
Coniophora puteana; [2]
  Mittlere Toxizitätsgrenzen: 2,0 kg/m^3 Holz
Coniophora puteana; [3]
  Mittlere Toxizitätsgrenzen: 0,8 kg/m^3 Holz
Coniophora puteana; [4]
  Mittlere Toxizitätsgrenzen: 0,4 kg/m^3 Holz
Coriolus versicolor; [2]
  Mittlere Toxizitätsgrenzen: 2,7 kg/m^3 Holz
Coriolus versicolor; [3]
  Mittlere Toxizitätsgrenzen: 1,1 kg/m^3 Holz
Coriolus versicolor; [4]
  Mittlere Toxizitätsgrenzen: 0,6 kg/m^3 Holz
[1]
  Löslichkeit (%) in Shellsol AB: 71%
  Löslichkeit (%) in Testbenzin: 16%

## CCN(CC)S(=O)(=O)N(SC(F)(Cl)Cl)c1ccc(C)cc1 [Beispiel 2, N,N-Diethyl-N'-(p-tolyl)-N'-(dichlorfluormethylthio)-sulfamid]
Coniophora puteana; [4]
  Mittlere Toxizitätsgrenzen: 0,7 kg/m^3 Holz
Coriolus versicolor; [4]
  Mittlere Toxizitätsgrenzen: 1,5 kg/m^3 Holz
[1]
  Löslichkeit (%) in Shellsol AB: 67%
  Löslichkeit (%) in Testbenzin: 59%

## CN(C)S(=O)(=O)N(SC(F)(Cl)Cl)c1ccccc1 [Dichlofluanid, N,N-Dimethyl-N'-phenyl-N'-(fluordichlormethylthio)-sulfamid, reference compound]
Coniophora puteana; [2]
  Mittlere Toxizitätsgrenzen: 3,7 kg/m^3 Holz
Coniophora puteana; [3]
  Mittlere Toxizitätsgrenzen: 2,4 kg/m^3 Holz
Coniophora puteana; [4]
  Mittlere Toxizitätsgrenzen: 1,9 kg/m^3 Holz
Coriolus versicolor; [2]
  Mittlere Toxizitätsgrenzen: 3,5 kg/m^3 Holz
Coriolus versicolor; [3]
  Mittlere Toxizitätsgrenzen: 3,2 kg/m^3 Holz
Coriolus versicolor; [4]
  Mittlere Toxizitätsgrenzen: 2,5 kg/m^3 Holz
[1]
  Löslichkeit (%) in Shellsol AB: 6%
  Löslichkeit (%) in Testbenzin: 1,2%

From patent EP0170168A2, “N,N,-diethyl, N'-aryl, N'-(dichlorfluormethylthio)sulfamide-microbiocides” (BAYER AG, priority 1984, dated 1986)
